Molecules are shown by their SMILES. Counter-ions that a name gives are not always drawn. Like-named read-outs stand apart in the source and are kept apart here.

Data set [1] concerns immortalized Fuchs' endothelial corneal dystrophy cells (iFECD). Briefly: Caspase 3/7 activity (Caspase-Glo 3/7 Assay) in iFECD under TGF-β2 stimulation, primary and secondary screening. Type of data set: cell-based, human. The conditions noted are these: for activity at 10 µM: Homo sapiens. How it is done: 7×10^3 immortalized Fuchs' endothelial corneal dystrophy cells were seeded on a 96-well plate and were cultured for 24 hours under the condition of 5% CO2 at 37° C. Dulbecco's Modified Eagle Medium (DMEM) (nacalai tesque, 26252-94)+10% FBS (Biological Industries/04-001-1A)+1% penicillin-streptomycin (nacalai tesque, 26252-94) was used as the medium. Next, TGF-β2 (manufacturer: R&D Systems, Inc., distributor: Wako Pure Chemical Industries, Ltd./manufacturer codes 302-B2-002, 302-B2-010, distributor codes: 553-62881, 559-62883) (5 ng/mL) alone, or both TGF-β2 (5 ng/mL) and each agent of SCREEN-WELL® FDA Approved Drug Library V2, Japan version (10 μM) were added. After 28 hours under the condition of 5% CO2 at 37° C., cell morphology was observed using a phase difference microscope. Caspase 3/7 activity was then measured using Caspase-Glo 3/7 Assay (Promega, #G8091). DMEM+2% FBS+1% P/S was used as the medium. Caspase 3/7 activity and cell viability in this example were measured using Veritas™ Microplate Luminometer. Such a device enables many samples to be simultaneously measured.
The control group was supplemented with a solvent of each reagent, i.e., DMSO (Dimethyl Sulfoxide, Sterile-filtered) (nacalai tesque, 13408-64). Further, Z-VD-FMK (isomer mixture) (Wako Pure Chemical Industries, Ltd./262-02061) (10 μM), which is a caspase inhibitor, was used as the positive control. In the primary screening, measurement of Caspase 3/7 activity was carried out with n=2. […] Caspase activity was measured after being cultured in Dulbecco's Modified Eagle Medium (DMEM)+2% fetal bovine serum (FBS)+1% penicillin/streptomycin (P/S) for 28 hours.
Measurement was carried out with n=2 as the primary screening and a TGF-β2 (5 ng/mL) supplemented group was set as 100%. […] (1) and (2) of the control group, TGF-β2 (5 ng/mL) supplemented group, TGF-β2 (5 ng/mL)+Z-VD-FMK supplemented group (10 μM) are n=5 in total.
Evaluation of Caspase 3/7 activity was carried out with n=5 in the secondary screening.

For data set [2] the test system is unchanged. In words: Cell viability (CellTiter-Glo Luminescent Cell Viability Assay) in iFECD, secondary screening. The conditions noted are these: agent 10 μM, absence of TGF-β; for Secondary screening Viable cell number (%): 28 hours, n=2, vs candidate compound non-contacted group. Type of data set: cell-based, human. How it is done: In one embodiment, step (b) comprises measurement of cell viability. […] The cell viability is measured in the absence of TGF-β. […] The threshold value of the cell viability may be about 80%, about 85%, about 90%, about 95%, about 98%, about 99%, about 100%. […] Thus, a drug can be accurately selected by measuring cell number in addition to measuring caspase activity. Although the compounds shown in Table 2 appeared to be suppressing caspase activity, the compounds had strong toxicity, wherein cell viability went below 90%, and were thereby removed in the secondary screening.
Cell viability is calculated as an indicator of toxicity with n=2 in CellTiter-Glo® Luminescent Cell Viability Assay (Promega catalogue number: G7570). The cell viability was measured after culturing the cells in Dulbecco's Modified Eagle Medium (DMEM)+2% fetal bovine serum (FBS)+1% penicillin/streptomycin (P/S) for 28 hours. The cell viability was measured in the absence of TGF-β. When the cell viability was below 90%, the cells were removed from ranking.
A general note: Cellular ATP, detected with luciferase, serves as a proxy for viable cell number.

[3] abbreviates: 28 h, secondary screening Caspase 3/7 activity divided by cell viability, read-out: Caspase 3/7 activity/Viable cell number (%).
Where [4] appears, read: TGF-β2 5 ng/mL + agent 10 μM, 28 hours, n=2, TGF-β2 supplemented group set as 100%, read-out: Primary screening Caspase 3/7 activity (%).
Setting [5] is: TGF-β2 5 ng/mL + agent 10 μM, 28 hours, n=5, vs candidate compound non-contacted group, read-out: Secondary screening Caspase 3/7 activity (%).

Regarding `CCCC(=O)Nc1ccc(OCC(O)CNC(C)C)c(C(C)=O)c1.Cl` (stereo not shown) [Acebutolol•HCl], the “Primary screening Caspase 3/7 activity (%)” value in data set [1] (TGF-β2 5 ng/mL + agent 10 μM, 28 hours, n=2, TGF-β2 supplemented group set as 100%) came out at 74.30%. The “Secondary screening Caspase 3/7 activity (%)” value in data set [1] (TGF-β2 5 ng/mL + agent 10 μM, 28 hours, n=5, vs candidate compound non-contacted group) is given as 88.05%. Further, the “Caspase 3/7 activity/Viable cell number (%)” value in data set [1] (secondary screening Caspase 3/7 activity divided by cell viability) was determined as 88.25%. In data set [2], the “Cell viability class mark (before Viable cell number)” value (“Cell viability class mark” for short) was “∘ (90% or more cell viability)” and the “Secondary screening Viable cell number (%)” value was determined as 99.77%.
As for `CN1CC2c3ccccc3Oc3ccc(Cl)cc3C2C1` (stereo not shown) [Asenapine Maleate], the activity at 10 µM in data set [1] (setting [3]) came to 87.4%; in data set [1] (setting [4]), 72.8%; in data set [1] (setting [5]) it was 88.8%. Also, the “Cell viability class mark” value in data set [2] is “∘ (90% or more cell viability)”. In addition, the “Secondary screening Viable cell number (%)” value in data set [2] is listed as 101.64%.
Take `COc1ccccc1OCCNCC(O)COc1cccc2[nH]c3ccccc3c12` (stereo not shown) [Carvedilol]: the activity at 10 µM in data set [1] (setting [3]) was determined as 71.9%; in data set [1] (setting [4]) it was 50.3%; in data set [1] (setting [5]), 64.1%. Also, the “Cell viability class mark” value in data set [2] was “x (less than 90% cell viability)”. Further, in data set [2], the “Secondary screening Viable cell number (%)” value came to 89.1%.
On the same counts, the results for `O=C(O)c1ccc(-n2nc(-c3ccccc3O)nc2-c2ccccc2O)cc1` [Deferasirox] are 68.9%, 50%, 38.6%, “x (less than 90% cell viability)” and 56.04%.
Turning to `N#Cc1ccc(C(c2ccc(C#N)cc2)n2cncn2)cc1` [Letrozole], the activity at 10 µM in data set [1] (setting [3]) turned out to be 102%; in data set [1] (setting [4]), 71.2%; in data set [1] (setting [5]) it was 104%. In addition, the “Cell viability class mark” value in data set [2] is “∘ (90% or more cell viability)”. Besides, the “Secondary screening Viable cell number (%)” value in data set [2] worked out at 101.3%.
As for `Cc1[nH]c(=O)c(C#N)cc1-c1ccncc1` [Milrinone], the activity at 10 µM amounted to 95.2% in data set [1] (setting [3]), 62.5% in data set [1] (setting [4]) and 94.9% in data set [1] (setting [5]). Also, the “Cell viability class mark” value in data set [2] was “∘ (90% or more cell viability)”. Also, the “Secondary screening Viable cell number (%)” value in data set [2] is 99.67%.
Turning to `COc1c(C)c2c(c(O)c1C/C=C(\C)CCC(=O)OCCN1CCOCC1)C(=O)OC2` [Mycophenolate Mofetil], the activity at 10 µM in data set [1] (setting [3]) amounted to 70.4%; in data set [1] (setting [4]) it was 46.4%; in data set [1] (setting [5]), 47.6%. The “Cell viability class mark” value in data set [2] is given as “x (less than 90% cell viability)”. In data set [2], the “Secondary screening Viable cell number (%)” value is listed as 67.7%.
Take `CC(=O)Oc1ccccc1C(=O)Nc1ncc([N+](=O)[O-])s1` [Nitazoxanide]: the activity at 10 µM in data set [1] (setting [3]) was 49.3%; in data set [1] (setting [4]) it was 36.5%; in data set [1] (setting [5]), 43.3%. Moreover, the “Cell viability class mark” value in data set [2] is recorded as “x (less than 90% cell viability)”. The “Secondary screening Viable cell number (%)” value in data set [2] is given as 87.81%.
On the same counts, the results for `CC[C@@H]1/C=C(\C)C[C@H](C)C[C@H](OC)[C@H]2O[C@@](O)(C(=O)C(=O)N3CCCC[C@H]3C(=O)O[C@H](/C(C)=C/[C@@H]3CC[C@H](Cl)[C@H](OC)C3)[C@H](C)[C@@H](O)CC1=O)[C@H](C)C[C@@H]2OC` [Pimecrolimus] are 62.6%, 70.1%, 53%, “x (less than 90% cell viability)” and 84.64%.
With `COc1cc(NC(C)CCCN)c2ncccc2c1` (stereo not shown) [Primaquine Phosphate], in data set [2], the “Cell viability class mark” value is given as “∘ (90% or more cell viability)” and the “Secondary screening Viable cell number (%)” value was 99.7%.
Consider `CN(C)[C@@H]1C(O)=C(C(N)=O)C(=O)[C@@]2(O)C(O)=C3C(=O)c4c(O)cccc4[C@@](C)(O)[C@H]3C[C@@H]12` [Tetracycline], for which the activity at 10 µM amounted to 94.3% in data set [1] (setting [3]), 60.1% in data set [1] (setting [4]) and 93.7% in data set [1] (setting [5]). Also, the “Cell viability class mark” value in data set [2] is “∘ (90% or more cell viability)”. The “Secondary screening Viable cell number (%)” value in data set [2] is reported as 99.31%.

Values taken from patent US20200386744A1, “NOVEL SCREENING METHOD FOR TGF-BETA INHIBITOR” (The Doshisha, priority 2017, published 2020).
